Measurements reported in ChEMBL document CHEMBL1201862, “PubChem BioAssay data set” (2004).
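Assay format: 96-well plates, 48-hour exposure. The concentration for 50% growth inhibition is given as GI50.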 Activity calls are given as the source filed them. No stated cut-off is given here; in the data, active = GI50 up to about 1.1 µM and inactive = higher.

What was measured:
Test in all cases: inhibition of tumour cell growth, NCI panel, 48 h
[1] = system: 786-0
[2] = system: A498
[3] = system: COLO 205
[4] = system: DU-145
[5] = system: HCC 2998
[6] = system: HCT-15
[7] = system: HOP-62
[8] = system: Hs-578T
[9] = system: MDA-MB-231
[10] = system: MDA-MB-435
[11] = system: NCI-H226
[12] = system: OVCAR-5
[13] = system: SNB-75
[14] = system: T47D
[15] = system: TK-10
[16] = system: UO-31
[17] = system: CAKI-1
[18] = system: HOP-92
[19] = system: UACC-257

| Structure (SMILES) | GI50 [1] | GI50 [2] | GI50 [3] | GI50 [4] | GI50 [5] | GI50 [6] | GI50 [7] | GI50 [8] | GI50 [9] | GI50 [10] | GI50 [11] | GI50 [12] | GI50 [13] | GI50 [14] | GI50 [15] | GI50 [16] | GI50 [17] | GI50 [18] | GI50 [19] |
| --- | --- | --- | --- | --- | --- | --- | --- | --- | --- | --- | --- | --- | --- | --- | --- | --- | --- | --- | --- |
| CN(C)c1cc[n+](-c2nc([N-]C(=O)C(F)(F)F)nc3c2ncn3C2CC(O)C(CO)O2)cc1 (stereo not drawn) | > 100 µM (inactive) | > 100 µM (inactive) | > 100 µM (inactive) | > 100 µM (inactive) | > 100 µM (inactive) | > 100 µM | > 100 µM (inactive) | > 100 µM (inactive) | > 100 µM (inactive) | > 100 µM (inactive) | > 100 µM (inactive) | > 100 µM (inactive) | > 100 µM (inactive) | > 100 µM (inactive) | > 100 µM (inactive) | > 100 µM (inactive) |  |  |  |
| CC(C)(C)c1cc(C2NCCO2)cc(C(C)(C)C)c1O (stereo not drawn) | 65.8 µM (inactive) | > 100 µM (inactive) | > 100 µM (inactive) | > 100 µM (inactive) |  | 57 µM | 30.1 µM (inactive) | 79.3 µM (inactive) | 20.6 µM (inactive) | > 100 µM (inactive) | > 100 µM (inactive) | > 100 µM (inactive) | 10.8 µM (inactive) | 0.0538 µM (active) | 37.1 µM (inactive) |  | 45.9 µM (inactive) | 74.6 µM (inactive) | > 100 µM (inactive) |
| Cc1cc(C)n(CN(Cn2nc(C)cc2C)c2ccccc2)n1 | 21.4 µM (inactive) | > 100 µM (inactive) | 14.3 µM (inactive) | 30.3 µM (inactive) |  | 19.6 µM | 23.7 µM (inactive) | 45 µM (inactive) | 37.6 µM (inactive) | 13.7 µM (inactive) |  | 30.1 µM (inactive) |  | 23.7 µM (inactive) | 46.1 µM (inactive) | 21.7 µM (inactive) | 20.4 µM (inactive) | 33.5 µM (inactive) | 22.3 µM (inactive) |
| O=C(O)c1ccc2c(c1)CC1(C2)Cc2ccccc2C1=O (stereo not drawn) | > 100 µM (inactive) |  | > 100 µM (inactive) | > 100 µM (inactive) | > 100 µM (inactive) | > 100 µM | > 100 µM (inactive) | > 100 µM (inactive) | > 100 µM (inactive) | > 100 µM (inactive) | > 100 µM (inactive) | > 100 µM (inactive) | > 100 µM (inactive) | > 100 µM (inactive) | > 100 µM (inactive) | > 100 µM (inactive) |  | 25.2 µM (inactive) | > 100 µM (inactive) |
| COc1cc2nc(-c3cccs3)nc(N3C(c4cc(OC)c(OC)c(OC)c4)=NNC(=O)c4ccccc43)c2cc1OC | 35.6 µM (inactive) | > 100 µM (inactive) | > 100 µM (inactive) | 29 µM (inactive) |  | 13.5 µM | 66.8 µM (inactive) | 38.9 µM (inactive) | 16.7 µM (inactive) | 13.9 µM (inactive) | > 100 µM (inactive) | 21.8 µM (inactive) | 25.7 µM (inactive) | 39 µM (inactive) | 22.8 µM (inactive) | 27.4 µM (inactive) | 52.8 µM (inactive) | 78.5 µM (inactive) | 35.3 µM (inactive) |
| COc1ccc2nc3cc(Cl)ccc3c(NCCCN(Cc3cc(OC)c(OC)c(OC)c3)Cc3cc(OC)c(OC)c(OC)c3)c2c1 | 12.1 µM (inactive) |  | 4.3 µM (inactive) | 12.8 µM (inactive) | 14.3 µM (inactive) | > 10 µM | 4.65 µM (inactive) | 8.55 µM (inactive) | < 0.01 µM (active) | > 10 µM (inactive) | 14 µM (inactive) | 13.3 µM (inactive) |  | 23 µM (inactive) | 23.1 µM (inactive) | 10.6 µM (inactive) | 14.4 µM (inactive) | 10.1 µM (inactive) | 13.9 µM (inactive) |
| CC(C)OCC(O)COc1cc(=O)oc2ccccc12 (stereo not drawn) | > 100 µM (inactive) |  | > 100 µM (inactive) | > 100 µM (inactive) | 50.4 µM (inactive) | > 100 µM | > 100 µM (inactive) | > 100 µM (inactive) | > 100 µM (inactive) | > 100 µM (inactive) |  | > 100 µM (inactive) |  | > 100 µM (inactive) | > 100 µM (inactive) | > 100 µM (inactive) | > 100 µM (inactive) | > 100 µM (inactive) | > 100 µM (inactive) |
| COc1ccc(N)c(C(=O)CCNC(C)=O)c1 [KINURENAMINE] | > 100 µM (inactive) | > 100 µM (inactive) | > 100 µM (inactive) | > 100 µM (inactive) |  | > 100 µM |  | > 100 µM (inactive) | > 100 µM (inactive) | > 100 µM (inactive) | > 100 µM (inactive) | > 100 µM (inactive) | > 100 µM (inactive) | > 100 µM (inactive) | > 100 µM (inactive) | > 100 µM (inactive) | > 100 µM (inactive) | > 100 µM (inactive) | > 100 µM (inactive) |
| CC(C)CCCC(C)[C@H]1CCC2[C@@H]3CCC4Cc5nc6c(nc5C[C@]4(C)C3CC[C@@]21C)CC1CC[C@@H]2C(C[C@@H](O)[C@@]3(C)C2C[C@@H]2OC4(CCC(C)CO4)C(C)[C@@H]23)[C@@]1(C)C6 (stereo partly drawn) | > 100 µM (inactive) |  | > 100 µM (inactive) | > 100 µM (inactive) | > 100 µM (inactive) | > 100 µM | > 100 µM (inactive) | > 100 µM (inactive) | > 100 µM (inactive) | > 100 µM (inactive) | > 100 µM (inactive) | > 100 µM (inactive) | > 100 µM (inactive) | > 100 µM (inactive) | > 100 µM (inactive) |  |  | > 100 µM (inactive) | > 100 µM (inactive) |
| CC1OC2OC3C(OCC(O)C3O)OC(=O)[C@]34CCC(C)(C)CC3C3=CCC5[C@@]6(C)C[C@H](O)[C@H](OC7OC(CO)C(O)C(O)C7OC7OCC(OC(=O)CC(C)(O)CC(=O)OC1C(OC1OC(CO)C(O)C(O)C1O)C2O)C(O)C7O)[C@@](C)(CO)C6CC[C@@]5(C)[C@]3(C)CC4 (stereo partly drawn) | 4.83 µM (inactive) |  | 2.3 µM (inactive) | 8.09 µM (inactive) | 2.43 µM (inactive) | 12 µM | 1.44 µM (inactive) | 14.6 µM (inactive) | 10.9 µM (inactive) | 2.45 µM (inactive) | 17.2 µM (inactive) | 8.91 µM (inactive) | 11.5 µM (inactive) | 9.46 µM (inactive) | 10.8 µM (inactive) | 4.47 µM (inactive) | 6.41 µM (inactive) | 10.3 µM (inactive) | 3.48 µM (inactive) |
| Cc1ncc2c(=O)c3c(oc2n1)c1ccccc1n3Cc1ccccc1 | 84.9 µM (inactive) |  | > 100 µM (inactive) | > 100 µM (inactive) | > 100 µM (inactive) | > 100 µM | 27.4 µM (inactive) | > 100 µM (inactive) | > 100 µM (inactive) | > 100 µM (inactive) | > 100 µM (inactive) | > 100 µM (inactive) | 29.5 µM (inactive) | 7.24 µM (inactive) | > 100 µM (inactive) | > 100 µM (inactive) | > 100 µM (inactive) |  | > 100 µM (inactive) |
| Clc1ccccc1/C=C/c1nsc(/C=C/c2ccccc2Cl)n1 | 19 µM (inactive) | > 100 µM (inactive) | 47.4 µM (inactive) | > 100 µM (inactive) |  | 38 µM | 36.6 µM (inactive) | > 100 µM (inactive) | 60 µM (inactive) | 42.6 µM (inactive) | > 100 µM (inactive) | > 100 µM (inactive) | 71.4 µM (inactive) | 10.4 µM (inactive) | 30.8 µM (inactive) | > 100 µM (inactive) | > 100 µM (inactive) | > 100 µM (inactive) | 26.5 µM (inactive) |
| Nc1ccc2c(c1)nc1n2C(c2c(F)cccc2F)SC1 (stereo not drawn) | > 100 µM (inactive) | > 100 µM (inactive) | > 100 µM (inactive) | > 100 µM (inactive) | > 100 µM (inactive) | > 100 µM | > 100 µM (inactive) | > 100 µM (inactive) | > 100 µM (inactive) | > 100 µM (inactive) |  | > 100 µM (inactive) | > 100 µM (inactive) | 76.4 µM (inactive) | > 100 µM (inactive) | 97.7 µM (inactive) | 53.7 µM (inactive) |  | > 100 µM (inactive) |
| N#Cc1c(-c2ccc(Cl)cc2)c2c(n(C3OC(CO)C(O)C(O)C3O)c1=S)CCC2 (stereo not drawn) | 30.9 µM (inactive) |  | 29.6 µM (inactive) | 42.4 µM (inactive) | 19.8 µM (inactive) | 36.6 µM | 23.6 µM (inactive) | 31.7 µM (inactive) | 36.9 µM (inactive) | 19.8 µM (inactive) |  | 41.3 µM (inactive) | 19.8 µM (inactive) | 20.5 µM (inactive) | 37.6 µM (inactive) | 38.7 µM (inactive) | 30.2 µM (inactive) | 24.3 µM (inactive) | 33.4 µM (inactive) |
| CC(C)(CO)CNc1nc(N)nc(Cl)c1N | > 100 µM (inactive) |  | > 100 µM (inactive) | > 100 µM (inactive) | > 100 µM (inactive) | > 100 µM | > 100 µM (inactive) | > 100 µM (inactive) | > 100 µM (inactive) | > 100 µM (inactive) | 67.3 µM (inactive) | > 100 µM (inactive) | > 100 µM (inactive) | 58.5 µM (inactive) | > 100 µM (inactive) | > 100 µM (inactive) | > 100 µM (inactive) | > 100 µM (inactive) | 42.9 µM (inactive) |
| Cc1cc(S(=O)(=O)[N-]/C(=N/S(=O)(=O)c2ccc(Cl)cc2)[n+]2ccc(N(C)C)cc2)c(SCC(=O)O)cc1Cl | > 100 µM (inactive) | 45.4 µM (inactive) | > 100 µM (inactive) | > 100 µM (inactive) |  | > 100 µM | 17.9 µM (inactive) | > 100 µM (inactive) | 83.4 µM (inactive) | > 100 µM (inactive) | 52.7 µM (inactive) | 21.5 µM (inactive) | 20.5 µM (inactive) | > 100 µM (inactive) | 86.5 µM (inactive) | > 100 µM (inactive) | > 100 µM (inactive) | 24.6 µM (inactive) | > 100 µM (inactive) |
